Key:
[1] = test system: human alveolar macrophages; conditions: Raychaudhuri et al. 2002; cited from earlier work
[2] = test system: human pulmonary arterial smooth muscle cells; conditions: Clapp et al. 2002; cited from earlier work
[3] = test system: patients with class III or class IV heart failure; conditions: Patterson et al. 1995; cited from earlier work
[4] = test system: patients with PAD, diabetes and inoperable ischemic foot ulcers; assay: open-label study of safety and efficacy in patients with PAD, diabetes and inoperable ischemic foot ulcers; assay type: in vivo
Protocol: The purpose of this open-label study is to evaluate the safety and efficacy of treprostinil sodium, a stable prostacyclin analogue, in ten patients with PAD, diabetes and inoperable ischemic foot ulcers.
Treprostinil sodium was administered as a continuous subcutaneous infusion beginning at 2.5 ng/Kg/Min and titrated to highest tolerated dose for 12 weeks. Patients were monitored for adverse events, wound healing, skin perfusion pressure and ischemic rest pain.

[5] = test system: diabetic neuropathy patients having at least one ulcer present on a foot; assay: administration to humans with diabetic neuropathy suffering from foot ulcers; assay type: in vivo; conditions: continuous subcutaneous infusion, 2.5 ng/kg/min raised weekly to target dose, 12 weeks
Protocol: Diabetic neuropathy patients having at least one ulcer (i.e., small sore or area of tissue gangrene) present on a foot are dosed with increasing amounts of Treprostinil over 12 weeks. The medication is delivered by a small pump that is connected to a catheter placed under the skin. In this manner, increasing dosages of Treprostinil are administered to patients by chronic continuous subcutaneous infusion.
Specifically, a 1.0 mg/mL formulation of Treprostinil sodium (REMODULIN®) is administered subcutaneously using a standard micro-infusion, positive-pressure infusion pump designed for subcutaneous drug delivery (Mini-Med). Patients receive an initial dose of 2.5 ng/kg/min of study drug. If, in a given patient, a dose of 2.5 ng/kg/min is not tolerated (e.g., persistent headache, nausea, emesis, restlessness, anxiety or severe pain at infusion site that cannot be adequately managed by medication or topical treatment), the dose is reduced to 1.25 ng/kg/min. Patients are maintained at 2.5 ng/kg/min (or 1.25 ng/kg/min if 2.5 ng/kg/min is not tolerated) during Week 1. After that, the dose is raised by 2.50 ng/kg/min each week until not tolerated or once a target dose is reached.
Dosing is increased weekly unless not tolerated by the patient. […] One example of a target dose is 15 ng/kg/min. The minimum dose is usually not less than 0.625 ng/kg/min. […]

[6] = test system: diabetics with non-healing wounds in critically ischemic lower extremities; assay: case-controlled trial in diabetic patients with recalcitrant lower extremity wounds: peri-wound TcPO2 and laser Doppler; assay type: in vivo, human
Protocol: A case-controlled trial examining the effects of treprostinil sodium (Remodulin®), by continuous subcutaneous infusion, was performed in diabetic patients with recalcitrant lower extremity wounds. The known vasodilator and platelet-aggregation inhibitor properties of treprostinil sodium warranted its evaluation as an adjuvant to wound healing in ischemic extremities. The primary endpoints were wound healing and limb salvage. Amongst the secondary endpoints were resting peri-wound transcutaneous oximetry (TcPO2) and laser Doppler analysis (LD) and the response of TcPO2 and LD to an oxygen challenge at ambient or elevated pressure. If treprostinil sodium reduces inflow resistance distal to the pre-capillary sphincter, the ΔpO2 between the hypoxic wound center and the inflow blood should increase both in magnitude and in the slope of that difference. This would be the physiologic basis for the augmentation of the hypoxic signal.
The seven enrolled patients were diabetics with non-healing wounds present (>3 months) in critically ischemic lower extremities (Fontaine Stage III-IV or Rutherford Stage 4, 5 or 6). The treprostinil sodium (Remodulin®) was given by continuous subcutaneous infusion for the study period of 6 weeks. Candidacy for hyperbaric oxygen treatment was an exclusion criterion (patient refusal, logistical constraints or a recently completed HBO2 course). […]

[7] = of seven patients who completed the trial to-date, 12 weeks

Compound	inflammatory cytokine (tumor necrosis factor-α, interleukin-1β, interleukin-6, GM-CSF) secretion and gene expression [1]	proliferation of human pulmonary arterial smooth muscle cells [2]	vasodilator effects [3]	serious adverse events attributed to treprostinil ([4]; continuous subcutaneous infusion from 2.5 ng/Kg/Min titrated to highest tolerated dose, 12 weeks, seven patients completed)	drug related side effect reported ([4]; continuous subcutaneous infusion, 12 weeks, seven patients completed)	patients who experienced complete healing [4, 7]	patients who experienced complete resolution of rest pain [4, 7]	patients who experienced partial healing [4, 7]	foot ulcers present before treatment [5]	new foot ulcers associated with diabetic neuropathy [5]	effect on ischemic rest pain, skin perfusion, and wound healing ([4]; conclusion of the study)	increase in LD signals (thermal stimulation response) ([6]; all patients with exception of one, on drug against before infusion)	patients who demonstrated healing in wounds ([6]; seven enrolled patients, continuous subcutaneous infusion for 6 weeks, wounds with mean healing arrest of 10.5 months)
CCCCC[C@H](O)CC[C@@H]1[C@H]2Cc3cccc(OCC(=O)O)c3C[C@H]2C[C@H]1O [Treprostinil, 9-deoxy-2′,9-α-methano-3-oxa-4,5,6-trinor-3,7-(1′,3′-interphenylene)-13,14-dihydro-prostaglandin F1]	inhibits	inhibits proliferation	vasodilator effects	No serious adverse events	mild to moderate infusion site pain	Two	Five	Two	reduction in the number, size and severity	fewer new foot ulcers			
CCCCC[C@H](O)CC[C@@H]1[C@H]2Cc3cccc(OCC(=O)O)c3C[C@H]2C[C@H]1O [Treprostinil sodium]											positive effect	236%	All patients but one
